Results on 7 compounds are retold here after paper PMC6411159, “Development of a high-throughput fluorescent no-wash sodium influx assay” (PLoS ONE, 2019).

Like-named read-outs stand apart in the source and are kept apart here.

In one data set the target is T1, hNaV1.7 (Homo sapiens, UniProt Q15858).
T1 construct: host or cells: HEK293
In kind it is cell-based. Here is the method:
(§1) HEK293 cells heterologously expressing human NaV1.1–1.8 (SB Drug Discovery, Glasgow, UK) were cultured in Minimum Essential Medium (MEM) (Sigma Aldrich #M5650) containing 10% v/v fetal bovine serum (FBS) and selection antibiotics as recommended by the manufacturer. SH-SY5Y human neuroblastoma cells (Victor Diaz, Goettingen, Germany) were cultured in Roswell Park Memorial Institute (RPMI) medium containing 15% v/v FBS and supplemented with L-glutamine (1 mM). […] Cells were grown in a humidified 5% CO2 incubator at 37°C, grown to 70–80% confluence, and passaged every 3–4 days using TrypLE Express (Invitrogen) or trypsin (0.25%).
(§2) Data were plotted and analyzed using GraphPad Prism, version 6.0. For concentration-response curves, a four-parameter Hill equation with variable Hill coefficient was fitted to the data. Statistical significance was defined as P < 0.05 and was determined by an unpaired t-test assuming equal variance or one-way ANOVA with Dunnett’s post-test as indicated. Data are presented as mean±SEM.

Data set [1] is described as follows: octanol-water partition of quencher dyes. In kind it is physicochemical. The note with it: 1 mM in 1:1 octanol/water, settled overnight. The method, then: Supplementary file pone.0213751.s002.pdf: S2 Fig Octanol-water partition of quencher dyes. Quenchers were added to 1:1 octanol/water volume to a 1mM concentration. Tubes were agitated and allowed to settle overnight. […] (PDF) Click here for additional data file.

Data set [2] is described as follows: absorbance spectra (UV-Vis spectrophotometry). It is filed as physicochemical. Conditions: diluted in water, NanoDrop ND1000. The method, then: Quencher dyes Allura Red AC, Amaranth, Carmine, Brilliant Black BN (Sigma Aldrich), and Ponceau 4R (pillar box red food dye) (Queen Australia) were diluted in water to the maximum concentration required to be within detection range (250–1000 μM). Their absorbance spectra were measured with a NanoDrop^TM ND1000 (ThermoFisher Scientific) UV-Vis spectrophotometer and plotted vs UV-Vis spectrum wavelength using GraphPad Prism 6.0.

A further data set deals with adenosine receptors. Also on record: method as in PMID 20086038. Conditions: cited from earlier work.
Another data set has as its target T2, TRPV4 (Homo sapiens, UniProt Q9HBA0).
T2 construct: endogenous in cells
Kind of data set: FLIPR calcium dye assay in MDA-MB-468 breast cancer cells. It is filed as cell-based. Conditions: MDA-MB-468 cells, read-out: EC50 (increase in intracellular calcium). The method, then:
FLIPR Calcium 4 no-wash dye (Molecular Devices) and BD Calcium Assay (BD Biosciences) kits were diluted in physiological salt solution as per manufacturers instructions. […] Raw fluorescence readings were converted to response over baseline using the analysis tool of Screenworks 3.1.1.4 (Molecular Devices) and were expressed relative to the maximum increase in fluorescence of control responses following 5 min incubation of compounds.

For the next data set, the target named is T3, human NaV1.7 (Homo sapiens, UniProt Q15858).
T3 construct: host or cells: HEK293
T3 sequence (Q15858 whole entry): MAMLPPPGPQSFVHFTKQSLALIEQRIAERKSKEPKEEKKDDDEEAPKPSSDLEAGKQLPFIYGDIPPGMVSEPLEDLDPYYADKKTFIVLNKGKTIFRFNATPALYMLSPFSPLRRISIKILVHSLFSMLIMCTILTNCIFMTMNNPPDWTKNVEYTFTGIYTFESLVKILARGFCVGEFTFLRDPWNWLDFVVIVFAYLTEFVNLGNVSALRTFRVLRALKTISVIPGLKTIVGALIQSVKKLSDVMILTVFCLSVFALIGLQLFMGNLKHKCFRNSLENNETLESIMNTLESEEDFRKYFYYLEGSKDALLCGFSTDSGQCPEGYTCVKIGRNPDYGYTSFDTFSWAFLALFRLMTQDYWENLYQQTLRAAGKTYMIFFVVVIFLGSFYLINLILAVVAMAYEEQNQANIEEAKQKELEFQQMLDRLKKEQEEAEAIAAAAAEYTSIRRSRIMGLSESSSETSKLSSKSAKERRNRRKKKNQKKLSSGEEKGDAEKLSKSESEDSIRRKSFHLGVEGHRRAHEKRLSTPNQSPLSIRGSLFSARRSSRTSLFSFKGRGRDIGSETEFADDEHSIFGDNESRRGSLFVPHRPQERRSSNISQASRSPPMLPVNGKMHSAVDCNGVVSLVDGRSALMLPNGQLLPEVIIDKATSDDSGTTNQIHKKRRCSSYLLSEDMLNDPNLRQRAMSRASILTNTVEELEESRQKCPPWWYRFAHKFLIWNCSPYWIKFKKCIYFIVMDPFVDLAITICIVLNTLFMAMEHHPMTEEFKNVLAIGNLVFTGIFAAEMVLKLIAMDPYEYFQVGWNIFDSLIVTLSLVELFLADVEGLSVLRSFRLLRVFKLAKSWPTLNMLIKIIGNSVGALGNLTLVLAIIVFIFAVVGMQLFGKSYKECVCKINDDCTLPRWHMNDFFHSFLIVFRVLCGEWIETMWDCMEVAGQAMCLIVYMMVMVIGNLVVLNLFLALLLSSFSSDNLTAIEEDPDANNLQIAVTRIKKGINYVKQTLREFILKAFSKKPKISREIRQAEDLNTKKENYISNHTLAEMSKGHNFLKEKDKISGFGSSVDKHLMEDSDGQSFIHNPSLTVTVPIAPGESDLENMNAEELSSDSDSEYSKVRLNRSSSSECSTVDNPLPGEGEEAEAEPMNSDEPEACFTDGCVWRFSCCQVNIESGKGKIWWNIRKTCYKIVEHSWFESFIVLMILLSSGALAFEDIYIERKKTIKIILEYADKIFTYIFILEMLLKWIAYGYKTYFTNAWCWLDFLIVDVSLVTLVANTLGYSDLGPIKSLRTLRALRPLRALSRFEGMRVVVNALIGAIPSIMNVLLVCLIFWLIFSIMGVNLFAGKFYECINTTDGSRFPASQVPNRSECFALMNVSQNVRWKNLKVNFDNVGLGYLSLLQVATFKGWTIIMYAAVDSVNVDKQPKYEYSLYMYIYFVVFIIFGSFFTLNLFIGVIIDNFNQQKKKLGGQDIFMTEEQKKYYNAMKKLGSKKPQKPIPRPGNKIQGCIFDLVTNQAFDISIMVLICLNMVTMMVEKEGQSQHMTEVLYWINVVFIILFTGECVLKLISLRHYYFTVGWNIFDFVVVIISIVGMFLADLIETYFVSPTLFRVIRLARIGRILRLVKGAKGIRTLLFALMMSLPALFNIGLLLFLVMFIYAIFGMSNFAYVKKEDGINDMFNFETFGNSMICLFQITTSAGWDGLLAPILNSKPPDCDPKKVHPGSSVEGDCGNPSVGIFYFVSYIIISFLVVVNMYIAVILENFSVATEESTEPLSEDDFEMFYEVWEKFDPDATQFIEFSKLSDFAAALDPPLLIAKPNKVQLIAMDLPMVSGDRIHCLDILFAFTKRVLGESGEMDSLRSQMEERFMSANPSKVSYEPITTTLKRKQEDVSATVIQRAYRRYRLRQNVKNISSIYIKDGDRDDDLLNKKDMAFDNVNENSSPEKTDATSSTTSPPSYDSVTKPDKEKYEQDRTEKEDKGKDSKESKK
Put plainly: automated whole-cell patch-clamp electrophysiology (QPatch-16). It is filed as cell-based. Conditions: Ponceau 4R 1 mM. The method, then: Automated whole-cell patch-clamp recordings were performed on HEK293 cells heterologously expressing human NaV1.7 (SB Drug Discovery, Glasgow, UK) using a QPatch-16 automated electrophysiology platform (Sophion Bioscience, Ballerup, Denmark) as previously described. The extracellular solution consisted of (in mM): NaCl 70, Choline chloride 70, KCl 4, CaCl2 2, MgCl2 1, HEPES 10 and glucose 10; pH 7.4; osmolarity 305 mOsm. The intracellular solution consisted of (in mM): CsF 140, EGTA/CsOH 1/5, HEPES 10 and NaCl 10; pH 7.3 with CsOH; osmolarity 320 mOsm. Ponceau 4R (1 mM) was diluted in extracellular solution and incubated for 5 min before running the voltage protocol and compared to time-matched buffer controls. Patch clamp experiments were conducted at room temperature.
I-V curves were obtained with the membrane potential held at –90 mV and a series of 500 ms step pulses that ranged from –110 to +55 mV in 5-mV increments. Conductance-voltage curves were calculated using the equation G = I/(V–Vrev), where G is conductance, I is peak current and Vrev is the reversal potential. Steady-state fast inactivation was tested using a two-pulse protocol, with 500 ms step pre-pulses (as above) preceding a 10 ms pulse of –20 mV (repetition interval 6000 ms). Both steady-state activation and inactivation curves were fitted using Boltzmann function.
On the technique in general: The patch-clamp technique gives a direct electrical read-out from membranes.

Another data set has as its target T4, hNaV1.1 (Homo sapiens, UniProt P35498).
T4 construct: host or cells: HEK293
Put plainly: no-wash sodium influx assay (ANG-2 with quencher Ponceau 4R), FLIPR. It is filed as cell-based. From the text:
(§3) […]. […] Data are presented as mean±SEM.

The next data set concerns the target T5, hNaV1.4 (Homo sapiens, UniProt P35499).
T5 construct: host or cells: HEK293
Described as above. It is filed as cell-based. Conditions: hNaV1.4, response to veratridine 60 μM; read-out: IC50 (reduction of fluorescence response).
Description: as §3

The next data set deals with T6, hNaV1.8 (Homo sapiens, UniProt Q9Y5Y9).
T6 construct: host or cells: HEK293
T6 sequence (Q9Y5Y9 whole entry): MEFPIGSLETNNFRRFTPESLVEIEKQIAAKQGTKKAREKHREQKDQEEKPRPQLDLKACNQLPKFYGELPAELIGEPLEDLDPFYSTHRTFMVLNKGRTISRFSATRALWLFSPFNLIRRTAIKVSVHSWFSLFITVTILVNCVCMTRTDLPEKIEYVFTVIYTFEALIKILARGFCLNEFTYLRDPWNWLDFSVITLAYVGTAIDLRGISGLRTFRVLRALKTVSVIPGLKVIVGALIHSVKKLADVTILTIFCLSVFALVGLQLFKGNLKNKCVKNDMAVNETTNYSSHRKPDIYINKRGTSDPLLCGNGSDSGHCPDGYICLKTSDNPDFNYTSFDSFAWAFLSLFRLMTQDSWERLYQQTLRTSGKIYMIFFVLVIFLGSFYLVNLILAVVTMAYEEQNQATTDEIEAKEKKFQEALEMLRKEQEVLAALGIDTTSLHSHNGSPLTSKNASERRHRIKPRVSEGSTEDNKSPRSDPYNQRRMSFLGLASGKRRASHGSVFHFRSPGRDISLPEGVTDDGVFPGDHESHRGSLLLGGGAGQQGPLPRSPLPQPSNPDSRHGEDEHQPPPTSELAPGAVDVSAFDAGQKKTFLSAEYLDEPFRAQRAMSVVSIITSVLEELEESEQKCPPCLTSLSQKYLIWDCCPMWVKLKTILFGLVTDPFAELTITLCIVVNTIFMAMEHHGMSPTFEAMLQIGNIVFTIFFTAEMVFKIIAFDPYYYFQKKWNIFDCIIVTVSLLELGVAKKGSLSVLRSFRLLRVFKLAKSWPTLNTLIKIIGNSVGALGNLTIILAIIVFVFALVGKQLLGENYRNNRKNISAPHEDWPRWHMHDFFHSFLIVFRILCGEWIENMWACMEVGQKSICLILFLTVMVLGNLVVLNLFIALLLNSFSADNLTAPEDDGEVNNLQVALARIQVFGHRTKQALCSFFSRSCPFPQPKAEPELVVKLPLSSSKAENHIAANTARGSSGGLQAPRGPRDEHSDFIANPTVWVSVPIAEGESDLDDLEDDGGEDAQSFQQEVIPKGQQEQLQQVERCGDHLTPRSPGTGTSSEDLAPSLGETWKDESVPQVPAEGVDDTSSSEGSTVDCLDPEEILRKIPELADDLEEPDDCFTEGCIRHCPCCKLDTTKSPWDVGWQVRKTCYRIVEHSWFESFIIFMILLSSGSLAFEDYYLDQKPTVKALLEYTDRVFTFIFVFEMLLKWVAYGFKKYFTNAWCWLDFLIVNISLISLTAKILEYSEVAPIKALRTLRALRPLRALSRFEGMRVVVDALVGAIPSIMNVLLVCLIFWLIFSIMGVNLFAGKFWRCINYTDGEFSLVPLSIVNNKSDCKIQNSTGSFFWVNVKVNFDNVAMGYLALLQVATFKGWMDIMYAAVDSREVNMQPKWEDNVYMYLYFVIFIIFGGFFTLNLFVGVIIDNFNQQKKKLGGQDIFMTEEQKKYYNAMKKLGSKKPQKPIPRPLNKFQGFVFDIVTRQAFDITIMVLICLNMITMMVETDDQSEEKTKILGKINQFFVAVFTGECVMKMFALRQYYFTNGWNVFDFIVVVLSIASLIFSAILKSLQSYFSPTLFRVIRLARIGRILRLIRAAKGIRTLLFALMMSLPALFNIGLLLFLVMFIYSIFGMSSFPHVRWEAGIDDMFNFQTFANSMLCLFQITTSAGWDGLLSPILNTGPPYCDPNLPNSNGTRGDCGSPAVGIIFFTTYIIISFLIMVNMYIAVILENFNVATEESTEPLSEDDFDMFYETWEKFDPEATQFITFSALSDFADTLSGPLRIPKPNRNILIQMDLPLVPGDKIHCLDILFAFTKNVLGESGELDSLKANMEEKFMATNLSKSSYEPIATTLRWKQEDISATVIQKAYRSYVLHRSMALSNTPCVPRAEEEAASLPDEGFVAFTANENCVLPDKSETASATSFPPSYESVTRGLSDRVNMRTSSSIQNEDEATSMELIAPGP
The description is as above. It is filed as cell-based.
Description: as §3

A further data set has as its system NaV1.1–1.8. Kind of data set: no-wash sodium influx assay, summary over subtypes. It is filed as cell-based, human. Conditions: ANG-2 + Ponceau 4R 1 mM; stimulation with veratridine (NaV1.1–1.7) or deltamethrin (NaV1.8); read-out: IC50 range over NaV1.1–1.8.
Description: as §3

The next data set deals with hNaV1.2 (Homo sapiens, UniProt Q99250). Put plainly: cell-based. Here is the method:
as §1, §2

A further data set has as its system NaV1.1–1.7. The note with it: read-out: EC50 range over NaV1.1–1.7; ANG-2 + Ponceau 4R 1 mM. Here is the method:
as §1, §2

A further data set relates to NaV1.8. More on the design: method as in PMID 14769548. The note with it: cited from earlier work.
Setting [3] is: 5 min, vs time-matched buffer control.

T2 sequence (Q9HBA0 whole entry): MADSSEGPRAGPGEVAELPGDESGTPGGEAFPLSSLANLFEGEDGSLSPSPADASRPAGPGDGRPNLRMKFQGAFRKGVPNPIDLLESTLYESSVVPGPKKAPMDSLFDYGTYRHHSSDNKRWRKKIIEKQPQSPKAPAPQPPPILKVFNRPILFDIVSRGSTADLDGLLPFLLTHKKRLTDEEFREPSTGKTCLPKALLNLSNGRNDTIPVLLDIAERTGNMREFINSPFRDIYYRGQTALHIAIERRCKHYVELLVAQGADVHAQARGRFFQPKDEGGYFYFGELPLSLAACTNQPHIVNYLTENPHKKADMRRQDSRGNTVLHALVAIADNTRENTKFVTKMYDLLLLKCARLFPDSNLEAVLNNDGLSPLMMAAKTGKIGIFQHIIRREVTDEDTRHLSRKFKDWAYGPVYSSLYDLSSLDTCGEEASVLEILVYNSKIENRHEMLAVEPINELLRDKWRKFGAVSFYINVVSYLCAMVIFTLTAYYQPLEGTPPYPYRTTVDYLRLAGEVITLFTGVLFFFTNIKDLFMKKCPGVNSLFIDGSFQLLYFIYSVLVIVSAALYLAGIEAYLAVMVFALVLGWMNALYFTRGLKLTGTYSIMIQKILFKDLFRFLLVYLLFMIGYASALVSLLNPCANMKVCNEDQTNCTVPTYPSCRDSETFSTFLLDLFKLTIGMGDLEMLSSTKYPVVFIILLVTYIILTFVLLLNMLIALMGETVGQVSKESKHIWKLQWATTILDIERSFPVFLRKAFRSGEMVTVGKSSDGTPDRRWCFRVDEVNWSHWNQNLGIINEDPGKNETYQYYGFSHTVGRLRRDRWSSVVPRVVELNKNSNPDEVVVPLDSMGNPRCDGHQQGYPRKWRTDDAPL
T1 sequence (Q15858 whole entry): as the sequence (Q15858 whole entry) above

For `Cc1c(C(=O)O)c(O)cc2c1C(=O)c1c(O)c(C3O[C@H](CO)[C@@H](O)[C@H](O)[C@H]3O)c(O)c(O)c1C2=O` (stereo in doubt) [Carmine], the “veratridine-induced fluorescence signal in presence of quencher” value on hNaV1.7 is “comparatively low signal”. Besides, in [1], the octanol-water partition entry is on record as “partitioned into the octanol phase”.

For `COc1cc(S(=O)(=O)[O-])c(C)cc1N=Nc1c(O)ccc2cc(S(=O)(=O)[O-])ccc12.[Na+].[Na+]` [Allura Red, Allura Red AC], the octanol-water partition entry in data set [1] is listed as “partitioned into the octanol phase”.

With `CC(=O)Nc1ccc(S(=O)(=O)[O-])c2cc(S(=O)(=O)[O-])c(N=Nc3ccc(N=Nc4ccc(S(=O)(=O)[O-])cc4)c4ccc(S(=O)(=O)[O-])cc34)c(O)c12.[Na+].[Na+].[Na+].[Na+]` [Brilliant Black BN], the “peak absorption (λ max)” value in data set [2] came out at 575 nm. Further, the “action on adenosine receptors” value in the data set on adenosine receptors is on record as “allosteric modulator”.

On to `CC(C)C[C@H](NC(=O)c1cc2ccccc2s1)C(=O)N1CCN(C(=O)[C@H](CO)NS(=O)(=O)c2ccc(Cl)cc2Cl)CC1` [GSK1016790A], for which the EC50 came out at 0.04 µM at TRPV4 (BD Calcium Assay Kit); 0.08 µM at TRPV4 (FLIPR Calcium 4 no-wash dye); 0.064 µM at TRPV4 (fluo-4 with Allura Red 1 mM); 0.07 µM at TRPV4 (fluo-4 with Amaranth 1 mM); 0.072 µM at TRPV4 (fluo-4 with Brilliant Black BN 1 mM); 0.074 µM on TRPV4 (fluo-4 with Ponceau 4R 1 mM). The EC50 on TRPV4 (fluo-4 with wash) came out at 0.047 µM.

Take `O=S(=O)([O-])c1cc(S(=O)(=O)[O-])c2c(N=Nc3ccc(S(=O)(=O)[O-])c4ccccc34)c(O)ccc2c1.[Na+].[Na+].[Na+]` [Ponceau 4R]: at human NaV1.7, the “effect on activation or inactivation kinetics of NaV1.7” value is listed as “no effect” and the “shift in the I-V curve or effect on current size” value is “did not cause a shift in the I-V curve or affect the current size”. At human NaV1.7 (setting [3]), the “shift in voltage-dependence of activation (V1/2 activation Δ)” value is given as “–0.96 mV” and the “shift in voltage-dependence of steady-state fast inactivation (V1/2 inactivation Δ)” value is reported as “–1.46 mV”.

As to `CCCCNc1ccc(C(=O)OCCN(C)C)cc1` [tetracaine], the IC50 at hNaV1.1 (hNaV1.1, response to veratridine 60 μM, read-out: IC50 (reduction of fluorescence response)) is 52 µM; on hNaV1.4, 13 µM; against hNaV1.8 (Tetracaine pIC50, hNaV1.8, 5 min pre-incubation, then deltamethrin 150 μM) it was 6.61 µM; on hNaV1.8 (hNaV1.8, response to deltamethrin 150 μM, read-out: IC50 (reduction of fluorescence response)), 6 µM; in the data set on NaV1.1–1.8, 6 to 66 µM.

Consider `COc1ccc(C(=O)O[C@H]2CC[C@@]3(C)[C@@H]4CC[C@H]5[C@]6(O)C[C@H](O)[C@@]7(O)[C@@H](CN8C[C@@H](C)CC[C@H]8[C@@]7(C)O)[C@]6(O)C[C@@]53O[C@]24O)cc1OC` [veratridine], for which the EC50 at hNaV1.1 (EC50 (increase in fluorescence), hNaV1.1, ANG-2 + Ponceau 4R) is 21 µM; on hNaV1.1 (Veratridine pEC50, HEK293 hNaV1.1, ANG-2 + Ponceau 4R 1 mM, AUC 5 min) it was 21.9 µM; at hNaV1.2 (EC50 (increase in fluorescence), hNaV1.2, ANG-2 + Ponceau 4R) it was 16 µM; at hNaV1.2 (Veratridine pEC50, HEK293 hNaV1.2, ANG-2 + Ponceau 4R 1 mM, AUC 5 min), 16.6 µM; in the data set on NaV1.1–1.7, 10 to 29 µM. In addition, the “effect on NaV1.8 in fluorescence-based assays” value in the data set on NaV1.8 is reported as “little effect”.

As usually defined, the EC50 is the concentration at which the effect is half-maximal. In general, IC50 refers to the concentration needed to halve the response being measured.
